One series relates to TNF. In words: Anti-inflammatory assay, TNF in LPS-stimulated THP-1 cells (CBA). It counts as cell-based, human. The method, then: For this assay, THP-1 (BCRJ cód. 0234) cells were cultured in Roswell Park Memorial Institute (RPMI-1640, Sigma-Aldrich; Saint Louis, MO, USA) media supplemented with 2 mM L-glutamine, 1 mM sodium pyruvate, 1.50 g/L of sodium bicarbonate, and 10% fetal bovine serum. For obtaining Macrophage-like cells, 250,000 cells per well were plated in a 24-well cell culture plate. A total of 20 ng/mL of Forbol 12-miristato-13-acetato (PMA) was added to each well, and the cells were incubated for 48 h at 37 °C with 5% CO2. After the 48 h, the wells were washed with 1X PBS, and fresh RPMI-1640 media was added. The cells were then incubated for 24 h at 37 °C and 5% CO2. For the cell’s stimulations, after the 24 h, the well was washed with PBS and fresh RPMI1640 media without fetal bovine serum added. For the positive controls of the assay, 3 wells were stimulated with LPS (1 ng/µL) diluted in the same volume and media used for the drugs stimulation. Two different concentrations (2 and 4 µg/mL) were evaluated for each molecule, which were determined to be non-cytotoxic through a cell viability assay. After a 24 h period, the supernatant was removed and used in the cytokine quantification assay. A kit for inflammatory cytokines, BD® Cytometric Bead Array CBA Human Inflammatory, was employed for this assay, containing the following human cytokines: IL-8, IL-1β, IL-6, and TNF. Standard cytokines were prepared in 9 different concentrations: 1:256, 1:128, 1:64, 1:32, 1:16, 1:8, 1:4, 1:2, and 1:1 (“top standard”). Analysis was performed using a Flow Cytometer FACS Aria Fusion BD (Bioscence, Houston, TX, USA). Data analysis was conducted using Prism software (version 10.4.1).

In another series the test system is Detroit-562 cells. Description: MTT cytotoxicity assay on Detroit-562 cells. The class given is cell-based. An excerpt:
The SCC-25 (ATCC® CRL-1628™), Detroit-562 (ATCC® CCL-138™), and THP-1 (ATCC® TIB-202™) cells were purchased from Rio de Janeiro Cell Bank (Duque de Caxias, Brazil), and NOK-si was kindly provided by Prof. Carlos Rossa from the School of Dentistry—UNESP. All the cells were cultivated according to standard conditions. Human colorectal adenocarcinoma HCT116 cell lines (ATCC® CCL-247™) expressing p53 and its p53-null isogenic derivative (HCT116 p53^−/−) were provided by B. Vogelstein (The Johns Hopkins Kimmel Cancer Center, Baltimore, MD, USA).
Cells (NOK-si, SCC-25, and Detroit-562) were grown in a DMEM medium (Dulbecco’s Modified Eagle Medium), supplemented according to the needs of each lineage, as recommended by its cell banks, with 2 mM L-glutamine, 10% or 20% fetal bovine serum (FBS), 1% antibiotic–antimycotic solution (5 mg/mL penicillin, 5 mg/mL streptomycin, and 10 mg/mL neomycin), 4.5 g/L of glucose, and 3.7 g/L of sodium bicarbonate (NaHCO3). All cell lines were cultured in flasks at 37 °C in 5% carbon dioxide (CO2) and 95% of relative humidity. The assays were conducted between the third- and the seventh-cell passage, with sub-cultures every 3–4 days to maintain exponential growth. The cell viability was checked using the trypan blue dye exclusion assay for all experiments, where over 95% of the cells were viable at the beginning of the tests. NOK-si, SCC-25, and Detroit-562 were initially thawed and cultured in 25 cm^2 cell culture flasks. Cell growth was monitored using a microscope, and the culture medium was changed periodically. […] Absorbance was read at 562 nm using an EZ Read 400 microplate reader (Biochrom, Cambridge, UK) and ADAP 2.0 Biochrom software (version 2.0). IC50 values and graphs were calculated using Excel and Prism software (version 10.4.1). The MTT assay results were evaluated for normality using the Shapiro–Wilk test, followed by one-way ANOVA with Tukey’s post hoc test at a significance level of 5%.

A short description of series [1]: Metabolic stability in human liver microsomes. It counts as in vitro ADME. The method, then: (§1) The metabolic stability of test compounds and controls [imipramine (Sigma-Aldrich, St. Louis, MO, USA), verapamil (Sigma-Aldrich, St. Louis, MO, USA), and warfarin (Sigma-Aldrich, St. Louis, MO, USA)] were assessed using human pooled liver human microsomes (20 mg/mL) (GIBCO, Frederick, MD, USA) and pooled liver CD1 mouse microsomes (20 mg/mL) (GIBCO, Frederick, MD, USA). […] Microsomal suspensions were thawed and diluted in phosphate buffer to obtain a final concentration of 0.25 mg/mL. A solution of NADPH (Sigma-Aldrich, St. Louis, MO, USA) at […] was also prepared in phosphate buffer. […] The plate was incubated at 37 °C under shaking (100 rpm). […] The reactions were stopped by adding quenching solution (75 μL) consisting of acetonitrile:methanol (1:1) with an internal standard (50 nM). Samples were centrifuged (3500 rpm, 30 min) to remove precipitated microsomal proteins, and the supernatant fractions were analyzed by an LCMS-8045 system (Shimazu, Kyoto, Japan). The chromatographic analysis was performed using a Supelco Ascentis Express C18 column (3 cm × 2.1 mm, 5 μm). The mobile phases consisted of water + 0.1% formic acid (A) and acetonitrile + 0.1% formic acid (B). […] The run time was 2 min, with a sample injection volume of 10 μL and a flow rate of 0.7 mL/min. Metabolic stability was assessed by calculating the peak area ratios (analyte/internal standard) and converting them into the percentage of the compound remaining, using the area ratio at time 0 as 100%.
Background: Liver microsomes are vesicles of endoplasmic reticulum, rich in cytochrome P450 enzymes.

The nature of series [2]: Metabolic stability in mouse (CD-1) liver microsomes. It counts as in vitro ADME. The method, then: as §1

The structures appear in SMILES notation. “Also recorded” adds a separate entry of the source.

We go through one compound from paper PMC12301034, “Design and Synthesis of Boronic Chalcones with Dual Anticancer and Anti-Inflammatory Activity” (Molecules, 2025).

The term IC50 denotes the point on the concentration scale where inhibition reaches its midpoint. Read a low IC50 as inhibition by little substance. On to `COc1cccc(C(=O)/C=C/c2cccc(B(O)O)c2)c1` [Compound 5, (E)-(3-(3-(3-methoxyphenyl)-3-oxoprop-1-en-1-yl)phenyl)boronic acid], for which the “TNF levels relative to untreated THP-1 cells” value with TNF (7.1 μM) is “reducing them below those of untreated THP-1 cells”. Besides, in the series on TNF (2 and 4 µg/mL, 24 h), the “reduction of TNF levels” value was “significantly reduced; also recorded: pronounced reduction”. It took 33.1 ± 5.1 µM to reach half-maximal inhibition in the series with Detroit-562 cells (Homo sapiens, MTT, 24 h incubation, Detroit-562 metastatic pharyngeal cancer model) (IC50). The “SI against the metastatic cell line (NOK-si vs Detroit-562)” value in the series with Detroit-562 cells (selectivity index) is reported as “greater than 1.7”. Also, the “intrinsic clearance (Clint) in HLM” value in series [1] is reported as “high clearance”. Further, the microsomal CLint at 0.51 μM in series [1] (human, microsomes, pH 7.4) was 56.8 µL/min/mg; in series [1] (human, pooled liver microsomes, pH 7.4, read-out: intrinsic clearance (Clint) in HLM) it was 77 µL/min/mg; in series [2] (CD-1, mouse, microsomes, pH 7.4), 36 µL/min/mg. For the same compound, the half-life at 0.51 μM is 48.8 min in series [1] (human, pooled liver microsomes, pH 7.4, read-out: Human Liver Microsome (HLM) T1/2) and 56.8 min in series [2] (CD-1, mouse, pooled liver microsomes, pH 7.4, read-out: Mouse Liver Microsome (MsLM) T1/2). For the same compound, the “Mouse Liver Microsome (MsLM) T1/2” value in series [2] (mouse) worked out at 77.02 min.
